Measured values from ChEMBL document CHEMBL3232986, “Identification of a novel series of potent HCV NS5B Site I inhibitors” (Bioorg Med Chem Lett, 2014).

How the values were obtained:
Hepatitis C virus = experiment: Antiviral activity against HCV genotype 1a H77c infected in human HuH7 cells after 3 days by luciferase reporter gene assay; assay type: functional, cell-based, Hepacivirus hominis; settings: Huh-7, 72 h
[1] = Plasma concentration in rat at 5 mg/kg, iv after 6 hrs; assay type: ADME, organism-based; set-up: dose 5 mg/kg, route intravenous; settings: plasma
[2] = Inhibition of HCV genotype 1b wild type NS5B polymerase using biotinylated oligo dT12 primer as substrate after 4 hrs in presence of [3H]UTP; set-up: species or system Hepatitis C virus subtype 1b
[3] = Cytotoxicity against human HuH7 cells after 4 hrs by CellTitre-Blue assay; assay type: cell-based, Huh-7
[4] = Clearance in rat after 6 hrs; assay type: ADME, organism-based; settings: in vivo
[5] = Plasma concentration in rat at 10 mg/kg, po after 6 hrs; assay type: ADME, organism-based; set-up: dose 10 mg/kg, route oral; settings: plasma
[6] = Drug uptake in rat liver 10 mg/kg, po after 6 hrs; assay type: ADME, organism-based; set-up: dose 10 mg/kg, route oral; settings: liver, read-out: Drug uptake
[7] = Drug uptake in rat liver at 5 mg/kg, iv after 6 hrs; assay type: ADME, organism-based; set-up: dose 5 mg/kg, route intravenous; settings: liver, read-out: Drug uptake
[8] = Ratio of EC50 for HCV genotype 1a H77c replicon cells to IC50 for HCV genotype 1b wild type NS5B polymerase
[9] = Permeability of the compound at pH 7.4 by PAMPA; assay type: physicochemical; settings: read-out: permeability

Row | Compound | EC50 (Hepatitis C virus) | concentration at 6 h [1] | IC50 [2] | CC50 at 4 h [3] | clearance [4] | concentration at 6 h [5] | concentration at 6 h [6] | concentration at 6 h [7] | Ratio [8] | Papp [9]
1 | CCN1CC23COCC2(C1)CN(C(=O)[C@]12C[C@H]1c1cc(OC)ccc1-c1c(C4CCCCC4)c4ccc(C(=O)NS(=O)(=O)C(C)C)cc4n1C2)C3 (some centres not stated) | 4 nM | 8 nM | 4 nM | 11000 nM | 49 mL/min/kg | 6 nM | 66 nM |  |  | 
2 | COc1ccc2c(c1)[C@@H]1C[C@]1(C(=O)N1CC34CNCC3(CN(C)C4)C1)Cn1c-2c(C2CCCCC2)c2ccc(C(=O)NS(=O)(=O)C(C)C)cc21 (some centres not stated) | 41 nM |  | 5 nM |  |  |  |  |  |  | 
3 | COc1ccc2c(c1)[C@@H]1C[C@]1(C(=O)N1CC34CN(C)CC3(CN(C)C4)C1)Cn1c-2c(C2CCCCC2)c2ccc(C(=O)NS(=O)(=O)C(C)C)cc21 (some centres not stated) | 1 nM | 14 nM | 5 nM | 43000 nM | 25 mL/min/kg | 4 nM | 68 nM | 66 nM |  | 
4 | COc1ccc2c(c1)[C@@H]1C[C@]1(C(=O)N1CC34CNCC3(COC4)C1)Cn1c-2c(C2CCCCC2)c2ccc(C(=O)NS(=O)(=O)C(C)C)cc21 (some centres not stated) | 23 nM |  | 6 nM |  |  |  |  |  |  | 
5 | COc1ccc2c(c1)[C@@H]1C[C@]1(C(=O)N1CC34COCC3(CN(C(C)=O)C4)C1)Cn1c-2c(C2CCCCC2)c2ccc(C(=O)NS(=O)(=O)C(C)C)cc21 (some centres not stated) | 42 nM |  | 3 nM | > 100000 nM |  |  |  |  | 14 | 
6 | COC(=O)N1CC23COCC2(C1)CN(C(=O)[C@]12C[C@H]1c1cc(OC)ccc1-c1c(C4CCCCC4)c4ccc(C(=O)NS(=O)(=O)C(C)C)cc4n1C2)C3 (some centres not stated) | 46 nM |  | 23 nM | 5000 nM |  |  |  |  |  | 
7 | COC(=O)N1CC23COCC2(C1)CN(C(=O)[C@]12C[C@H]1c1cc(OC)ccc1-c1c(C4CCCCC4)c4ccc(C(=O)NS(=O)(=O)N(C)C)cc4n1C2)C3 (some centres not stated) | 462 nM |  |  | 7000 nM |  |  |  |  |  | 
8 | CNC(=O)N1CC23COCC2(C1)CN(C(=O)[C@]12C[C@H]1c1cc(OC)ccc1-c1c(C4CCCCC4)c4ccc(C(=O)NS(=O)(=O)C(C)C)cc4n1C2)C3 (some centres not stated) | 200 nM |  | 3 nM | > 100000 nM |  |  |  |  | 66 | 1.8 ×10⁻⁶ cm/s
9 | COc1ccc2c(c1)[C@@H]1C[C@]1(C(=O)N1CC34COCC3(C1)CN(S(=O)(=O)C(C)C)C4)Cn1c-2c(C2CCCCC2)c2ccc(C(=O)NS(=O)(=O)C(C)C)cc21 (some centres not stated) | 16 nM |  | 2 nM | 17000 nM |  |  |  |  | 8 | 
10 | COc1ccc2c(c1)[C@@H]1C[C@]1(C(=O)N1CC34COCC3(C1)CN(S(=O)(=O)C(C)C)C4)Cn1c-2c(C2CCCCC2)c2ccc(C(=O)NS(=O)(=O)N(C)C)cc21 (some centres not stated) | 6 nM |  | 2 nM | 12000 nM |  |  |  |  |  | 
11 | COc1ccc2c(c1)[C@@H]1C[C@]1(C(=O)N1CC34COCC3(CN(CC(F)(F)F)C4)C1)Cn1c-2c(C2CCCCC2)c2ccc(C(=O)NS(=O)(=O)C(C)C)cc21 (some centres not stated) | 16 nM |  | 4 nM | 8000 nM |  |  |  |  |  | 
12 | COc1ccc2c(c1)[C@@H]1C[C@]1(C(=O)N1CC34COCC3(CN(CC(F)(F)F)C4)C1)Cn1c-2c(C2CCCCC2)c2ccc(C(=O)NS(=O)(=O)N(C)C)cc21 (some centres not stated) | 19 nM |  | 2 nM | 7000 nM |  |  |  |  |  | 
13 | CCOCCN1CC23COCC2(C1)CN(C(=O)[C@]12C[C@H]1c1cc(OC)ccc1-c1c(C4CCCCC4)c4ccc(C(=O)NS(=O)(=O)C(C)C)cc4n1C2)C3 (some centres not stated) | 5 nM | 32 nM |  | 19000 nM | 81 mL/min/kg | 8 nM | 116 nM | 77 nM |  | 
14 | CCOCCN1CC23COCC2(C1)CN(C(=O)[C@]12C[C@H]1c1cc(OC)ccc1-c1c(C4CCCCC4)c4ccc(C(=O)NS(=O)(=O)N(C)C)cc4n1C2)C3 (some centres not stated) | 3 nM |  |  | 16000 nM |  |  |  |  |  | 
15 | COc1ccc2c(c1)[C@@H]1C[C@]1(C(=O)N1CC34CCC3(CN(C)C4)C1)Cn1c-2c(C2CCCCC2)c2ccc(C(=O)NS(=O)(=O)C(C)C)cc21 (some centres not stated) | 4 nM | 26 nM | 4 nM | 21000 nM | 24 mL/min/kg | 6 nM | 146 nM | 138 nM |  | 
16 | COc1ccc2c(c1)[C@@H]1C[C@]1(C(=O)N1CC34CCC3(C1)CN(C1CC1)C4)Cn1c-2c(C2CCCCC2)c2ccc(C(=O)NS(=O)(=O)C(C)C)cc21 (some centres not stated) | 12 nM |  | 5 nM | 18000 nM |  |  |  |  |  | 
17 | COc1ccc2c(c1)[C@@H]1C[C@]1(C(=O)N1CC34CCC3(C1)CN(C1CC1)C4)Cn1c-2c(C2CCCCC2)c2ccc(C(=O)NS(=O)(=O)N(C)C)cc21 (some centres not stated) | 8 nM |  |  | 5000 nM |  |  |  |  |  | 
18 | COc1ccc2c(c1)[C@@H]1C[C@]1(C(=O)N1CC34CCC3(CN(C(C)=O)C4)C1)Cn1c-2c(C2CCCCC2)c2ccc(C(=O)NS(=O)(=O)C(C)C)cc21 (some centres not stated) | 31 nM |  | 2 nM | 37000 nM |  |  |  |  |  | 
19 | COC(=O)N1CC23CCC2(C1)CN(C(=O)[C@]12C[C@H]1c1cc(OC)ccc1-c1c(C4CCCCC4)c4ccc(C(=O)NS(=O)(=O)C(C)C)cc4n1C2)C3 (some centres not stated) | 64 nM |  | 25 nM | 3000 nM |  |  |  |  |  | 
20 | CNC(=O)N1CC23CCC2(C1)CN(C(=O)[C@]12C[C@H]1c1cc(OC)ccc1-c1c(C4CCCCC4)c4ccc(C(=O)NS(=O)(=O)C(C)C)cc4n1C2)C3 (some centres not stated) | 20 nM |  | 2 nM | 72000 nM |  |  |  |  |  | 
21 | COc1ccc2c(c1)[C@@H]1C[C@]1(C(=O)N1CC34CCC3(CN(C(=O)N3CCCC3)C4)C1)Cn1c-2c(C2CCCCC2)c2ccc(C(=O)NS(=O)(=O)C(C)C)cc21 (some centres not stated) | 27 nM |  | 4 nM | 14000 nM |  |  |  |  |  | 
22 | COc1ccc2c(c1)[C@@H]1C[C@]1(C(=O)N1CC34CCC3(CN(C(=O)N3CCCC3)C4)C1)Cn1c-2c(C2CCCCC2)c2ccc(C(=O)NS(=O)(=O)N(C)C)cc21 (some centres not stated) | 18 nM |  | 2 nM | 10000 nM |  |  |  |  |  | 
23 | COc1ccc2c(c1)[C@@H]1C[C@]1(C(=O)N1CC34CCC3(CN(C(=O)N3CCOCC3)C4)C1)Cn1c-2c(C2CCCCC2)c2ccc(C(=O)NS(=O)(=O)C(C)C)cc21 (some centres not stated) | 28 nM |  | 5 nM | 27000 nM |  |  |  |  |  | 
24 | COc1ccc2c(c1)[C@@H]1C[C@]1(C(=O)N1CC34CCC3(CN(C(=O)N(C(C)C)C(C)C)C4)C1)Cn1c-2c(C2CCCCC2)c2ccc(C(=O)NS(=O)(=O)C(C)C)cc21 (some centres not stated) | 37 nM |  | 4 nM | 10000 nM |  |  |  |  |  | 
25 | COc1ccc2c(c1)[C@@H]1C[C@]1(C(=O)N1CC34CCC3(CN(C(=O)N(C(C)C)C(C)C)C4)C1)Cn1c-2c(C2CCCCC2)c2ccc(C(=O)NS(=O)(=O)N(C)C)cc21 (some centres not stated) | 23 nM |  | 7 nM | 7000 nM |  |  |  |  |  | 
26 | COc1ccc2c(c1)[C@@H]1C[C@]1(C(=O)N1CC34CCC3(CN(CC(F)(F)F)C4)C1)Cn1c-2c(C2CCCCC2)c2ccc(C(=O)NS(=O)(=O)C(C)C)cc21 (some centres not stated) | 77 nM |  | 7 nM | 35000 nM |  |  |  |  |  | 
27 | COc1ccc2c(c1)[C@@H]1C[C@]1(C(=O)N1CC34CCC3(CN(CC(F)(F)F)C4)C1)Cn1c-2c(C2CCCCC2)c2ccc(C(=O)NS(=O)(=O)N(C)C)cc21 (some centres not stated) | 55 nM |  | 4 nM | 26000 nM |  |  |  |  |  | 
28 | COc1ccc2c(c1)[C@@H]1C[C@]1(C(=O)N1CC34CCC3(C1)CN(S(=O)(=O)C(C)C)C4)Cn1c-2c(C2CCCCC2)c2ccc(C(=O)NS(=O)(=O)C(C)C)cc21 (some centres not stated) | 7 nM |  | 4 nM | 10000 nM |  |  |  |  |  | 
29 | COc1ccc2c(c1)[C@@H]1C[C@]1(C(=O)N1CC34CCCC3(CN(C)C4)C1)Cn1c-2c(C2CCCCC2)c2ccc(C(=O)NS(=O)(=O)C(C)C)cc21 (some centres not stated) | 2 nM | 22 nM | 3 nM | 11000 nM | 31 mL/min/kg | 24 nM | 504 nM | 428 nM |  | 
30 | COc1ccc2c(c1)[C@@H]1C[C@]1(C(=O)N1[C@@H]3CC[C@H]1CN(C)C3)Cn1c-2c(C2CCCCC2)c2ccc(C(=O)NS(=O)(=O)N(C)C)cc21 [BECLABUVIR] | 2 nM |  | 4 nM | 16000 nM |  |  |  |  |  | 
